From publication PMC10108266, “Pharmacokinetic characteristics of golidocitinib, a highly selective JAK1 inhibitor, in healthy adult participants” (Frontiers in Immunology, 2023)

Assays:
[1] = JACKPOT3 SAD urinary PK (100 mg); type: in vivo, human; settings: single dose 100 mg
Protocol: After single oral administration, serial blood samples were obtained on Day 1 at pre-dose, and at 0.5, 1, 1.5, 2, 3, 4, 6, 8, 12, 24 (Day 2), 48 (Day 3), 72 (Day 4), 120 (Day 6), 168 (Day 8) and 216 (Day 10) hours post-dose for plasma PK analysis. Urine samples were collected during the collection intervals of 0-4, 4-10, 10-24, 24-48, 48-72, 72-96, 96-120, 120-144, and 144-168 hours following a single oral dose of 100 mg for urine PK analysis. Validated LC/MS methods were used for the determination of golidocitinib in human plasma and urine by Frontage Laboratories Inc. (Shanghai). This method was cross validated by Frontage Laboratories Inc. (New Jersey, USA) and met the acceptance criteria.
The mean (SD) amount of golidocitinib excreted in the urine over the collection period and renal clearance are presented in Table 2B . The average amount of golidocitinib excreted in the urine increased in an approximately dose proportional manner from 25 mg to 100 mg. […] The renal excretion fraction (Fe0-t) is helpful to compare the renal clearance (CLr) with total clearance (CLtotal) and determine the contribution of renal clearance in the drug elimination. It was calculated by the equation Fe0-t = CLr/CLtotal. The CL/F values were obtained from the two Phase I studies after the oral administration. Since the pharmacokinetics of golidocitinib after intravenous injection was not studied, the bioavailability value (F) was calculated by physiologically based pharmacokinetic (PBPK) model that incorporated compound specific information and independent prior knowledge on the physiology and biology at the organism.

[2] = Safety (TEAEs), JACKPOT2 SAD cohorts; type: in vivo, human; settings: n = 4
From the text: Safety assessments included monitoring of adverse events/serious adverse events, clinical safety laboratory tests (clinical chemistry, hematology, coagulation, and urinalysis tests), 12-lead ECG, vital signs (blood pressure, pulse rate, and respiratory rate), and pulmonary function. All adverse events were coded using the Medical Dictionary for Regulatory Activities (MedDRA), version 22.0. The CTCAE 5.0 was used to define the intensity of AEs.

[3] = Solubility in vitro; type: physicochemical

## COc1nn(C)cc1Nc1nccc(-c2c[nH]c3c(NC(=O)[C@@H](C)N4CCN(C)CC4)cccc23)n1 [golidocitinib, (2R)-N-[3-[2-[(3-Methoxy-1-methyl-pyrazol-4-yl)amino]pyrimidin-4-yl]-1H-indol-7-yl]-2-(4-methylpiperazin-1-yl)propenamide]
[1]; human, urine and plasma, oral, Ae0-t/AUC0-t, mean (SD)
  CL renal: 67.8 mL/min
[1]; CL/F * F (0.7 from PBPK model)
  CLtotal: 15.0 L/h
[1]; CLr/CLtotal
  Fe0-t: 27.2%
[1]; urine 0-168 hour, mean (SD)
  Ae0-t: 19.5 (6.22) mg
[2]; 5 mg single dose
  ALT Increased: 0 n (%)
  AST Increased: 0 n (%)
  Anemia: 1 (25.0%) n (%)
  Blood and Lymphatic System Disorders: 2 (50.0%) n (%)
  Chest Discomfort: 0 n (%)
  Dyspnea: 0 n (%)
  Eosinophilia: 2 (50.0%) n (%)
  General Disorders and Administration Site Conditions: 0 n (%)
  Investigations: 0 n (%)
  N-Terminal Pro-BNP: 0 n (%)
  Nasal Congestion: 1 (25.0%) n (%)
  Neutropenia: 0 n (%)
  Oropharyngeal Pain: 1 (25.0%) n (%)
  Respiratory, Thoracic and Mediastinal Disorders: 2 (50.0%) n (%)
  Subjects with at least one TEAE: 2 (50.0%) n (%)
  Thrombocytosis: 0 n (%)
[2]; 20 mg single dose
  ALT Increased: 0 n (%)
  AST Increased: 0 n (%)
  Anemia: 0 n (%)
  Blood and Lymphatic System Disorders: 2 (50.0%) n (%)
  Chest Discomfort: 0 n (%)
  Dyspnea: 0 n (%)
  Eosinophilia: 0 n (%)
  General Disorders and Administration Site Conditions: 0 n (%)
  Investigations: 0 n (%)
  N-Terminal Pro-BNP: 0 n (%)
  Nasal Congestion: 0 n (%)
  Neutropenia: 1 (25.0%) n (%)
  Oropharyngeal Pain: 0 n (%)
  Respiratory, Thoracic and Mediastinal Disorders: 0 n (%)
  Subjects with at least one TEAE: 2 (50.0%) n (%)
  Thrombocytosis: 1 (25.0%) n (%)
[2]; 50 mg single dose
  ALT Increased: 0 n (%)
  AST Increased: 0 n (%)
  Anemia: 0 n (%)
  Blood and Lymphatic System Disorders: 0 n (%)
  Chest Discomfort: 0 n (%)
  Dyspnea: 0 n (%)
  Eosinophilia: 0 n (%)
  General Disorders and Administration Site Conditions: 0 n (%)
  Investigations: 1 (25.0%) n (%)
  N-Terminal Pro-BNP: 1 (25.0%) n (%)
  Nasal Congestion: 0 n (%)
  Neutropenia: 0 n (%)
  Oropharyngeal Pain: 0 n (%)
  Respiratory, Thoracic and Mediastinal Disorders: 0 n (%)
  Subjects with at least one TEAE: 1 (25.0%) n (%)
  Thrombocytosis: 0 n (%)
[2]; 100 mg single dose
  ALT Increased: 0 n (%)
  AST Increased: 0 n (%)
  Anemia: 0 n (%)
  Blood and Lymphatic System Disorders: 1 (25.0%) n (%)
  Chest Discomfort: 1 (25.0%) n (%)
  Dyspnea: 0 n (%)
  Eosinophilia: 0 n (%)
  General Disorders and Administration Site Conditions: 1 (25.0%) n (%)
  Investigations: 0 n (%)
  N-Terminal Pro-BNP: 0 n (%)
  Nasal Congestion: 0 n (%)
  Neutropenia: 0 n (%)
  Oropharyngeal Pain: 0 n (%)
  Respiratory, Thoracic and Mediastinal Disorders: 0 n (%)
  Subjects with at least one TEAE: 1 (25.0%) n (%)
  Thrombocytosis: 1 (25.0%) n (%)
[2]; 150 mg single dose
  ALT Increased: 0 n (%)
  AST Increased: 0 n (%)
  Anemia: 0 n (%)
  Blood and Lymphatic System Disorders: 0 n (%)
  Chest Discomfort: 0 n (%)
  Dyspnea: 0 n (%)
  Eosinophilia: 0 n (%)
  General Disorders and Administration Site Conditions: 0 n (%)
  Investigations: 0 n (%)
  N-Terminal Pro-BNP: 0 n (%)
  Nasal Congestion: 0 n (%)
  Neutropenia: 0 n (%)
  Oropharyngeal Pain: 0 n (%)
  Respiratory, Thoracic and Mediastinal Disorders: 0 n (%)
  Subjects with at least one TEAE: 0 n (%)
  Thrombocytosis: 0 n (%)
[3]
  solubility: high solubility
